Experimental data from the NIST ThermoML archive (doi:10.1016/j.tca.2013.02.022).
± gives the expanded uncertainty stated by the source.

Experiment: cn = amount concentration of the nth substance listed, in mol/dm3
Details: 298.15 K, 101 kPa, Liquid, Alternating current cell with electrodes

SMILES: CCn1cc[n+](C)c1.[Br-] [1-ethyl-3-methylimidazolium bromide] + CO
- molar conductivity (c1 = 0.001828): 0.00814 ± 0.00017 S·m2/mol
- molar conductivity (c1 = 0.002264): 0.00804 ± 0.00017 S·m2/mol
- molar conductivity (c1 = 0.002683): 0.00795 ± 0.00016 S·m2/mol
- molar conductivity (c1 = 0.003262): 0.00784 ± 0.00016 S·m2/mol
- molar conductivity (c1 = 0.003528): 0.00779 ± 0.00016 S·m2/mol
- molar conductivity (c1 = 0.004007): 0.00771 ± 0.00016 S·m2/mol
- molar conductivity (c1 = 0.004303): 0.00765 ± 0.00016 S·m2/mol
- molar conductivity (c1 = 0.004622): 0.0076 ± 0.00015 S·m2/mol
- molar conductivity (c1 = 0.004858): 0.00757 ± 0.00015 S·m2/mol
- molar conductivity (c1 = 0.005093): 0.00753 ± 0.00015 S·m2/mol
- molar conductivity (c1 = 0.005282): 0.0075 ± 0.00015 S·m2/mol
- molar conductivity (c1 = 0.005565): 0.00746 ± 0.00015 S·m2/mol
- molar conductivity (c1 = 0.005822): 0.00743 ± 0.00015 S·m2/mol
- molar conductivity (c1 = 0.006122): 0.00739 ± 0.00015 S·m2/mol
- molar conductivity (c1 = 0.006338): 0.00736 ± 0.00015 S·m2/mol

SMILES: CCn1cc[n+](C)c1.[Br-] [1-ethyl-3-methylimidazolium bromide] + CC(=O)N(C)C
- molar conductivity (c1 = 0.000995): 0.00429 ± 0.00011 S·m2/mol
- molar conductivity (c1 = 0.001858): 0.004 ± 0.00011 S·m2/mol
- molar conductivity (c1 = 0.002527): 0.00377 ± 9.4e-05 S·m2/mol
- molar conductivity (c1 = 0.003129): 0.00364 ± 8.3e-05 S·m2/mol
- molar conductivity (c1 = 0.003697): 0.00354 ± 7.8e-05 S·m2/mol
- molar conductivity (c1 = 0.004106): 0.00348 ± 8.4e-05 S·m2/mol
- molar conductivity (c1 = 0.004509): 0.00335 ± 8.4e-05 S·m2/mol
- molar conductivity (c1 = 0.005187): 0.0032 ± 7.7e-05 S·m2/mol
- molar conductivity (c1 = 0.005736): 0.00309 ± 7.3e-05 S·m2/mol
- molar conductivity (c1 = 0.005973): 0.00305 ± 6.7e-05 S·m2/mol
- molar conductivity (c1 = 0.006388): 0.003 ± 6.9e-05 S·m2/mol
- molar conductivity (c1 = 0.0073): 0.00283 ± 6.8e-05 S·m2/mol
- molar conductivity (c1 = 0.007821): 0.00273 ± 6.1e-05 S·m2/mol
- molar conductivity (c1 = 0.008279): 0.0027 ± 6.4e-05 S·m2/mol
- molar conductivity (c1 = 0.008995): 0.00254 ± 6.8e-05 S·m2/mol

SMILES: CCn1cc[n+](C)c1.[Br-] [1-ethyl-3-methylimidazolium bromide] + CN(C)C=O
- molar conductivity (c1 = 0.001828): 0.00732 ± 0.00016 S·m2/mol
- molar conductivity (c1 = 0.002531): 0.0071 ± 0.00016 S·m2/mol
- molar conductivity (c1 = 0.003133): 0.0069 ± 0.00015 S·m2/mol
- molar conductivity (c1 = 0.003655): 0.00675 ± 0.00014 S·m2/mol
- molar conductivity (c1 = 0.004225): 0.00667 ± 0.00014 S·m2/mol
- molar conductivity (c1 = 0.004874): 0.00652 ± 0.00014 S·m2/mol
- molar conductivity (c1 = 0.005483): 0.00643 ± 0.00013 S·m2/mol
- molar conductivity (c1 = 0.005981): 0.0063 ± 0.00013 S·m2/mol
- molar conductivity (c1 = 0.006397): 0.00622 ± 0.00013 S·m2/mol
- molar conductivity (c1 = 0.006905): 0.00616 ± 0.00013 S·m2/mol
- molar conductivity (c1 = 0.007429): 0.0061 ± 0.00013 S·m2/mol
- molar conductivity (c1 = 0.007833): 0.00604 ± 0.00013 S·m2/mol
- molar conductivity (c1 = 0.008291): 0.00593 ± 0.00013 S·m2/mol
- molar conductivity (c1 = 0.008681): 0.00587 ± 0.00012 S·m2/mol
- molar conductivity (c1 = 0.009008): 0.00584 ± 0.00012 S·m2/mol

SMILES: CCn1cc[n+](C)c1.[Br-] [1-ethyl-3-methylimidazolium bromide] + CC#N
- molar conductivity (c1 = 0.000941): 0.0155 ± 0.00032 S·m2/mol
- molar conductivity (c1 = 0.001725): 0.0152 ± 0.00031 S·m2/mol
- molar conductivity (c1 = 0.002388): 0.015 ± 0.00031 S·m2/mol
- molar conductivity (c1 = 0.002957): 0.0149 ± 0.0003 S·m2/mol
- molar conductivity (c1 = 0.003994): 0.0146 ± 0.0003 S·m2/mol
- molar conductivity (c1 = 0.0046): 0.0145 ± 0.00029 S·m2/mol
- molar conductivity (c1 = 0.005175): 0.0144 ± 0.00029 S·m2/mol
- molar conductivity (c1 = 0.005645): 0.0143 ± 0.00029 S·m2/mol
- molar conductivity (c1 = 0.006038): 0.0143 ± 0.00029 S·m2/mol
- molar conductivity (c1 = 0.006369): 0.0142 ± 0.00029 S·m2/mol
- molar conductivity (c1 = 0.006654): 0.0142 ± 0.00028 S·m2/mol
- molar conductivity (c1 = 0.007011): 0.0141 ± 0.00028 S·m2/mol
- molar conductivity (c1 = 0.007656): 0.014 ± 0.00028 S·m2/mol
- molar conductivity (c1 = 0.007998): 0.0139 ± 0.00028 S·m2/mol
- molar conductivity (c1 = 0.008433): 0.0139 ± 0.00028 S·m2/mol

SMILES: CCn1cc[n+](C)c1.[Br-] [1-ethyl-3-methylimidazolium bromide] + C[S+](C)[O-]
- molar conductivity (c1 = 0.002105): 0.00246 ± 5.5e-05 S·m2/mol
- molar conductivity (c1 = 0.003858): 0.00225 ± 5e-05 S·m2/mol
- molar conductivity (c1 = 0.005342): 0.00209 ± 4.6e-05 S·m2/mol
- molar conductivity (c1 = 0.006614): 0.00198 ± 4.3e-05 S·m2/mol
- molar conductivity (c1 = 0.007717): 0.0019 ± 4.1e-05 S·m2/mol
- molar conductivity (c1 = 0.008681): 0.00182 ± 3.9e-05 S·m2/mol
- molar conductivity (c1 = 0.009532): 0.00177 ± 3.8e-05 S·m2/mol
- molar conductivity (c1 = 0.01097): 0.00166 ± 3.6e-05 S·m2/mol
- molar conductivity (c1 = 0.01213): 0.00158 ± 3.4e-05 S·m2/mol
- molar conductivity (c1 = 0.0135): 0.0015 ± 3.2e-05 S·m2/mol
- molar conductivity (c1 = 0.01458): 0.00144 ± 3.1e-05 S·m2/mol
- molar conductivity (c1 = 0.01614): 0.00136 ± 2.9e-05 S·m2/mol
- molar conductivity (c1 = 0.01721): 0.0013 ± 2.8e-05 S·m2/mol
- molar conductivity (c1 = 0.01812): 0.00126 ± 2.7e-05 S·m2/mol
- molar conductivity (c1 = 0.01902): 0.00122 ± 2.6e-05 S·m2/mol
